Measured values from patent US20110262359A1, “COMPOSITIONS COMPRISING ENZYME-CLEAVABLE PRODRUGS OF ACTIVE AGENTS AND INHIBITORS THEREOF” (priority 2010, published 2011).

Legend:
[1] = target: T1, human μ-opioid receptor (Homo sapiens, UniProt P35372); assay type: cell-based; details: EC50 at the human μ-opioid receptor, oxycodone or hydrocodone to the prodrug of that drug, same experiment
T1 construct: expressed in transfected cells; host or cells: CHO

[2] = Pharmacokinetics of Compound KC-4 following PO administration to rats; assay type: in vivo; details: rat PO; KC-4 6 mg/kg
[3] = Pharmacokinetics of Compound KC-4 following IV administration to rats; assay type: in vivo; details: KC-4 2 mg/kg ([…])
[4] = target: T2, trypsin from bovine pancreas (Bos taurus, UniProt P00760); assay: In vitro trypsin conversion of ketone-modified opioid prodrugs to oxycodone or hydrocodone and inhibition by Compound 109; assay type: biochemical; design: trypsin from bovine pancreas; purchased Sigma-Aldrich T8003; host or cells: bovine pancreas (tissue-derived); details: 0.761 mM prodrug, no inhibitor, 37° C.
T2 sequence (P00760 24-246): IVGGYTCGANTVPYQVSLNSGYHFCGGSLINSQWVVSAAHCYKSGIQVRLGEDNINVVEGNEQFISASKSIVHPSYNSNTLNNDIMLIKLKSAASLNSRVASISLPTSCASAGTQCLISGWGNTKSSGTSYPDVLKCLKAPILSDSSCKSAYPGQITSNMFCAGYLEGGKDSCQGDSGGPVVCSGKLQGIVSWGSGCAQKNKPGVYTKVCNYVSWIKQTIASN

T1 sequence (P35372 whole entry): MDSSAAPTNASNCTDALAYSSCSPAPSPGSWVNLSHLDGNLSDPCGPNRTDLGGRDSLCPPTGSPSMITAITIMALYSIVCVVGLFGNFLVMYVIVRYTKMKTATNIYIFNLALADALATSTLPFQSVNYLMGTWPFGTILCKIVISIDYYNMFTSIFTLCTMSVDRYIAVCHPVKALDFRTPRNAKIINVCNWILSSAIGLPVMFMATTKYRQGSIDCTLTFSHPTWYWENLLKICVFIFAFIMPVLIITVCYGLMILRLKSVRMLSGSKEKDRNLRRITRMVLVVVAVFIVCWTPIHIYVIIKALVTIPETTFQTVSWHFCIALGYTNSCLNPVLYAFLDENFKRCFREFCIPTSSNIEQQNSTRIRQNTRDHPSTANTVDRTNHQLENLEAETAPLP

SMILES: COc1ccc2c3c1OC1C(OC(=O)N(C)CCNC(=O)[C@H](CCCNC(=N)N)NC(=O)CC(=O)O)=CCC4[C@@H](C2)N(C)CC[C@]314 (stereo partly drawn) [Compound KC-4, N—((S)-1-{2-[(Dihydrocodein-6-enyloxycarbonyl)-methylamino]-ethylcarbamoyl-4-guanidino}-butyl)-malonamic acid]
- Drug/prodrug relative potency [1]: 15
- release of hydrocodone after oral administration [2]: leads to release of hydrocodone
- KC-4 Cmax (rat plasma) [3]: 3960 ± 570 ng/mL
- Rate of hydrocodone formation, umol/h/BAEE U Average ± sd ([4]; 241 BAEE U trypsin/mL): 0.0911 ± 0.015 umol/h/BAEE U
- Rate of hydrocodone formation, umol/h/BAEE U Average ± sd ([4]; 4815 BAEE U trypsin/mL): 0.0137 ± 0.0014 umol/h/BAEE U
